Reference: patent publication US7943770B2, “Fused quinoline derivative and use thereof” (Takeda Pharmaceutical Company Limited, priority 2004, dated 2011)

Target: T1, hNK2 receptor (Homo sapiens, UniProt P21452)
T1 construct: host or cells: CHO cells
T1 sequence (P21452 1-398): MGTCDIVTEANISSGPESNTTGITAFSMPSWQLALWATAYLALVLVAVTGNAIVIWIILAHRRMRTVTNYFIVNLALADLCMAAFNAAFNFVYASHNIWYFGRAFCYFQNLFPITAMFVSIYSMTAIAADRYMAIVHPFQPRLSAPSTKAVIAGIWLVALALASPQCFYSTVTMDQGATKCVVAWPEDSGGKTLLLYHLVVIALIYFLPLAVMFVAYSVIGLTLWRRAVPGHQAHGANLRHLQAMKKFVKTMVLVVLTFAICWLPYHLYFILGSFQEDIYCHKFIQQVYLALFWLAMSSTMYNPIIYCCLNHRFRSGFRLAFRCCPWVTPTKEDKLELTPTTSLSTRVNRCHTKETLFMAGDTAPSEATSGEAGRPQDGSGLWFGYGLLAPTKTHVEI
Experiment: Radio-ligand ([125I]-NKA) receptor binding inhibitory activity using membrane fraction of hNK2 receptor-expressing CHO cell
Conditions: membrane fraction of hNK2 receptor-expressing CHO cells, 25° C., 30 min
Procedure: hNK2 receptor-expressing CHO cells (produced by EUROSCREEN) were cultured in HAM-F12 medium containing 400 μg/ml Geneticin, 100 U/mL penicillin, 100 μg/mL streptomycin and 10% inactivated serum. The medium was removed and adhered cells were washed with PBS, and PBS containing 5 mM EDTA was added to detach the cells from the flask. The cells were recovered by centrifugation, suspended in suspending buffer A (15 mM Tris-HCl (pH 7.5), 2 mM MgCl2, 0.3 mM EDTA, 1 mM EGTA), disrupted by POLYTRON homogenizer (manufactured by KINEMATICA) and centrifuged at 800×g for 10 min. The supernatant was recovered and ultracentrifuged at 100000×g for 25 min. The precipitated fraction was suspended in suspending buffer B (7.5 mM Tris-HCl (pH 7.5), 12.5 mM MgCl2, 0.3 mM EDTA, 1 mM, […], 250 mM Sucrose) and cryopreserved (at −80° C.) as a receptor specimen.
An assay buffer (50 μl, 50 mM Tris-HCl (pH 7.4), 0.02% bovine serum albumin, 2 μg/mL chymostatin, 40 μg/mL bacitracin, 40 μg/mL APMSF, 3 mM MnCl2) was added to a 96 well microassay plate. Thereto was added a 20 μg/mL membrane specimen suspended in the assay buffer (50 μL). An assay buffer (50 μL) containing 2% dimethyl sulfoxide was added to examine the total binding, 4 unlabeled NKA (produced by Peptide Institute, Inc.) solution (50 μL) diluted with an assay buffer containing 2% dimethyl sulfoxide was added to examine non-specific binding, and a test compound diluted with an assay buffer (50 containing 2% dimethyl sulfoxide) was added to examine the binding inhibitory activity of the test compound. Furthermore, […] [^125I]-NKA (produced by Amersham Biosciences) solution (50 μL) was added to each well.
After reaction at 25° C. for 30 min., the reaction was stopped by rapid filtration on a unifilter plate (GF/C) (manufactured by PerkinElmer) using a cell harvester (manufactured by PerkinElmer) and the cells were washed 5 times with 50 mM Tris-HCl (pH 7.4) buffer containing 0.02% bovine serum albumin (250 μL). The GF/C filter plate was dried and 20 μl, of MicroScinti-O (manufactured by PerkinElmer) was added and the radioactivity was measured in Topcount (manufactured by PerkinElmer). The GF/C filter plate, which had been immersed in 0.3% polyethyleneimine for one day, was used. Specific binding is shown by the value obtained by subtracting non-specific binding from the total binding. The binding inhibitory activity of the test compound is shown by the ratio of the value obtained by subtracting the measured value associated with the addition of the test compound from the total binding, to the value of the specific binding.

SMILES	IC50 [nM]
O=C(N[C@@H]1CCCC[C@@H]1C(=O)N1CC[C@@H]2[C@H](c3cc[nH]c3)Nc3ccccc3[C@@H]21)c1ccccc1 (relative stereo) [Example 52, N-((1R,2S)-2-{[(3aR*,4R*,9bR*)-4-(1H-Pyrrol-3-yl)-2,3,3a,4,5,9b-hexahydro-1H-pyrrolo[3,2-c]quinolin-1-yl]carbonyl}cyclohexyl)benzamide]	< 10
CCCCCC(=O)N[C@@H]1CCCC[C@@H]1C(=O)N1CC[C@@H]2[C@H](c3ccccc3)Nc3ccccc3[C@@H]21 [Example 93, N-((1R,2S)-2-{[(3aR,4R,9bR)-4-Phenyl-2,3,3a,4,5,9b-hexahydro-1H-pyrrolo[3,2-c]quinolin-1-yl]carbonyl}cyclohexyl)hexanamide]	< 10
COC[C@@H]1Nc2ccccc2[C@H]2[C@@H]1CCN2C(=O)[C@H]1CCCC[C@H]1NC(=O)c1ccc(OC(F)(F)F)cc1 [Example 215, N-((1R,2S)-2-{[(3aR,4R,9bR)-4-(Methoxymethyl)-2,3,3a,4,5,9b-hexahydro-1H-pyrrolo[3,2-c]quinolin-1-yl]carbonyl}cyclohexyl)-4-(trifluoromethoxy)benzamide]	< 1
COc1ccc(NC(=O)N[C@@H]2CCCC[C@@H]2C(=O)N2CC[C@@H]3[C@H](C4CC4)Nc4ccccc4[C@@H]32)cc1 [Example 184, N-((1R,2S)-2-{[(3aR,4S,9bR)-4-Cyclopropyl-2,3,3a,4,5,9b-hexahydro-1H-pyrrolo[3,2-c]quinolin-1-yl]carbonyl}cyclohexyl)-N′-(4-methoxyphenyl)urea]	< 1
Cn1ccnc1C(=O)N[C@@H]1CCCC[C@@H]1C(=O)N1CC[C@@H]2[C@H](c3ccccc3)Nc3ccccc3[C@@H]21 [Example 132, 1-Methyl-N-((1R,2S)-2-{[(3aR,4R,9bR)-4-phenyl-2,3,3a,4,5,9b-hexahydro-1H-pyrrolo[3,2-c]quinolin-1-yl]carbonyl}cyclohexyl)-1H-imidazole-2-carboxamide]	< 10
CCC(=O)N[C@@H]1CCCC[C@@H]1C(=O)N1CC[C@@H]2[C@H](c3ccccc3)Nc3ccccc3[C@@H]21 [Example 86, N-((1R,2S)-2-{[(3aR,4R,9bR)-4-Phenyl-2,3,3a,4,5,9b-hexahydro-1H-pyrrolo[3,2-c]quinolin-1-yl]carbonyl}cyclohexyl)propanamide]	< 10
CCOC(=O)CCNC(=O)N[C@@H]1CCCC[C@@H]1C(=O)N1CC[C@@H]2[C@H](c3ccccc3)Nc3ccccc3[C@@H]21 [Example 155, Ethyl N-{[((1R,2S)-2-{[(3aR,4R,9bR)-4-phenyl-2,3,3a,4,5,9b-hexahydro-1H-pyrrolo[3,2-c]quinolin-1-yl]carbonyl}cyclohexyl)amino]carbonyl}-beta-alaninate]	< 10
COC[C@@H]1Nc2ccccc2[C@H]2[C@@H]1CCN2C(=O)[C@H]1CCCC[C@H]1NC(=O)c1ccc2c(c1)nc(C)n2C [Example 276, N-((1R,2S)-2-{[(3aR,4R,9bR)-4-(Methoxymethyl)-2,3,3a,4,5,9b-hexahydro-1H-pyrrolo[3,2-c]quinolin-1-yl]carbonyl}cyclohexyl)-1,2-dimethyl-1H-benzimidazole-5-carboxamide]	< 10
O=C(N[C@@H]1CCCC[C@@H]1C(=O)N1CC[C@@H]2[C@H](c3cncs3)Nc3ccccc3[C@@H]21)c1ccccc1 [Example 78, N-((1R,2S)-2-{[(3aR,4R,9bR)-4-(1,3-Thiazol-5-yl)-2,3,3a,4,5,9b-hexahydro-1H-pyrrolo[3,2-c]quinolin-1-yl]carbonyl}cyclohexyl)benzamide]	< 10
CC(=O)N[C@@H]1CCCC[C@@H]1C(=O)N1CC[C@@H]2[C@H](c3ccccc3)Nc3ccccc3[C@@H]21 [Example 85, N-((1R,25)-2-{[(3aR,4R,9bR)-4-Phenyl-2,3,3a,4,5,9b-hexahydro-1H-pyrrolo[3,2-c]quinolin-1-yl]carbonyl}cyclohexyl)acetamide]	< 10
O=C(CCCCCO)N[C@@H]1CCCC[C@@H]1C(=O)N1CC[C@@H]2[C@H](c3ccccc3)Nc3ccccc3[C@@H]21 [Example 119, 6-Hydroxy-N-((1R,2S)-2-{[(3aR,4R,9bR)-4-phenyl-2,3,3a,4,5,9b-hexahydro-1H-pyrrolo[3,2-c]quinolin-1-yl]carbonyl}cyclohexyl)hexanamide]	< 10
O=C(N[C@@H]1CCCC[C@@H]1C(=O)N1CC[C@@H]2[C@H](c3ccc(F)cc3)Nc3ccccc3[C@@H]21)c1ccccc1 (relative stereo) [Example 9, N-((1R,2S)-2-{[(3aR*,4R*,9bR*)-4-(4-Fluorophenyl)-2,3,3a,4,5,9b-hexahydro-1H-pyrrolo[3,2-c]quinolin-1-yl]carbonyl}cyclohexyl)benzamide]	< 10
O=C(N[C@@H]1CCCC[C@@H]1C(=O)N1CC[C@H]2[C@@H](c3ncc[nH]3)Nc3ccccc3[C@H]21)c1ccccc1 [Example 321, N-((1R,2S)-2-{[(3aS,4S,9bS)-4-(1H-Imidazol-2-yl)-2,3,3a,4,5,9b-hexahydro-1H-pyrrolo[3,2-c]quinolin-1-yl]carbonyl}cyclohexyl)benzamide]	< 10
O=C(N[C@@H]1CCCC[C@@H]1C(=O)N1CC[C@@H]2[C@H](c3ccccc3)Nc3cc(F)ccc3[C@@H]21)c1ccccc1 (relative stereo) [Example 6, N-((1R,2S)-2-{[(3aR*,4R*,9bR*)-7-Fluoro-4-phenyl-2,3,3a,4,5,9b-hexahydro-1H-pyrrolo[3,2-c]quinolin-1-yl]carbonyl}cyclohexyl)benzamide]	< 10
COC[C@@H]1Nc2ccccc2[C@H]2[C@@H]1CCN2C(=O)[C@H]1CCCC[C@H]1NC(=O)c1ccc(OC)c(C#N)c1 [Example 275, 3-Cyano-4-methoxy-N-((1R,2S)-2-{[(3aR,4R,9bR)-4-(methoxymethyl)-2,3,3a,4,5,9b-hexahydro-1H-pyrrolo[3,2-c]quinolin-1-yl]carbonyl}cyclohexyl)benzamide]	< 1
O=C(Nc1ccc(Cl)cc1)N[C@@H]1CCCC[C@@H]1C(=O)N1CC[C@@H]2[C@H](c3ccccc3)Nc3ccccc3[C@@H]21 [Example 136, N-(4-Chlorophenyl)-N′-((1R,2S)-2-{[(3aR,4R,9bR)-4-phenyl-2,3,3a,4,5,9b-hexahydro-1H-pyrrolo[3,2-c]quinolin-1-yl]carbonyl}cyclohexyl)urea]	< 10
O=C(Nc1ccccc1)N[C@@H]1CCCC[C@@H]1C(=O)N1CC[C@@H]2[C@H](C3CC3)Nc3ccccc3[C@@H]21 [Example 183, N-((1R,2S)-2-{[(3aR,4S,9bR)-4-Cyclopropyl-2,3,3a,4,5,9b-hexahydro-1H-pyrrolo[3,2-c]quinolin-1-yl]carbonyl}cyclohexyl)-N′-phenylurea]	< 1
O=C(Nc1ccccc1)N[C@@H]1CCCC[C@@H]1C(=O)N1CC[C@@H]2[C@H](c3ccccc3)Nc3ccccc3[C@@H]21 [Example 135, N-phenyl-N′-((1R,2S)-2-{[(3aR,4R,9bR)-4-phenyl-2,3,3a,4,5,9b-hexahydro-1H-pyrrolo[3,2-c]quinolin-1-yl]carbonyl}cyclohexyl)urea]	< 1
O=C(N[C@@H]1CCCC[C@@H]1C(=O)N1CC[C@@H]2[C@H](c3cocn3)Nc3ccccc3[C@@H]21)c1ccccc1 [Example 76, N-((1R,2S)-2-{[(3aR,4R,9bR)-4-(1,3-Oxazol-4-yl)-2,3,3a,4,5,9b-hexahydro-1H-pyrrolo[3,2-c]quinolin-1-yl]carbonyl}cyclohexyl)benzamide]	< 10
